In patent EP4603105A1, “PHARMACEUTICAL COMPOSITION CONTAINING CYCLIC COMPOUND HAVING SELECTIVE KRAS INHIBITORY EFFECT AGAINST HRAS AND NRAS” (CHUGAI SEIYAKU KABUSHIKI KAISHA, priority 2022, dated 2024):
*1 amine or outer side, *2 acyl side, *3 side chain or, on linkers, in order; H or OH if unused. Where a SMILES comes first, the peptide text is derived from it. Bridges are numbered along the chain shown (N, C = ends). [ ]: non-standard residue; d: D form. The star is where a group is joined. hPhe(3,5-F2-4-CF3) = N[C@@H](CCc1cc(F)c(C(F)(F)F)c(F)c1)C(=O)O; hPhe(3-Cl-4-CF3) = N[C@@H](CCc1ccc(C(F)(F)F)c(Cl)c1)C(=O)O; NPrPhe(4-CF3) = CCCN[C@@H](Cc1ccc(C(F)(F)F)cc1)C(=O)O; hPhe(3,4-Cl2) = N[C@@H](CCc1ccc(Cl)c(Cl)c1)C(=O)O; X15 = CCCN([C@@H](Cc1ccccc1)C(=O)[*:2])[*:1]; NMeGly(cPent) = CN[C@H](C(=O)O)C1CCCC1; X3 = CCC[C@](C)(N[*:1])C(=O)[*:2]; NMeD = CN[C@@H](CC(=O)O)C(=O)O; NMeL = CN[C@@H](CC(C)C)C(=O)O; Morpholide = C1CN(*)CCO1; Ac5c = NC1(C(=O)O)CCCC1; Aze = O=C(O)[C@@H]1CCN1; Ac4c = NC1(C(=O)O)CCC1; Sar = CNCC(=O)O

Experiments:
[1] = molecular target: GDP-bound NRAS wild-type protein (Homo sapiens, UniProt P01111); experiment: Binding to NRAS by surface plasmon resonance (SPR), KD and KD ratio to KRAS
Sequence of GDP-bound NRAS wild-type protein (P01111 whole entry): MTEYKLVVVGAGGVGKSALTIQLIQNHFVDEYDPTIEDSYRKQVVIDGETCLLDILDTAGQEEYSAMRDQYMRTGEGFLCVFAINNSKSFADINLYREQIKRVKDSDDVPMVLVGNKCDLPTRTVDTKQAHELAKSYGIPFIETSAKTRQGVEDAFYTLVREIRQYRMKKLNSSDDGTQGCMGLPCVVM
Outline: (§1)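 Compound binding is evaluated by SPR single-cycle kinetics, with concentrations added intermittently from low to high for 75 s each. Target surfaces carry GDP-loaded biotinylated Avi-RAS at about 100–300 RU, regenerated after each cycle; temperature 30°C. A 1:1 binding model gives KD.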

HRAS wild-type protein = HRAS wild-type protein (Homo sapiens, UniProt P01112); experiment: Binding to HRAS by surface plasmon resonance (SPR), KD and KD ratio to KRAS
Sequence of HRAS wild-type protein (P01112 whole entry): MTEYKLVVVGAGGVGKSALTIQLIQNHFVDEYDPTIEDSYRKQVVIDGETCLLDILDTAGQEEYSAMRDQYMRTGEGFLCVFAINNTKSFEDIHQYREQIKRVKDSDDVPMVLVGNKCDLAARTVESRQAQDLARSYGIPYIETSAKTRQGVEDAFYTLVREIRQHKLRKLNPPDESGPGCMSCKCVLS
Outline: as §1

[2] = system: human lung cancer strain NCI-H441; type: cell-based
Outline: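 Proliferation was scored by […] measured after the reagent was added to cultures kept at 37°C in 5% carbon dioxide.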

[3] = ratio of the KD value with respect to GDP-bound NRAS wild-type protein to the KD value with respect to KRAS
[4] = ratio of the KD value with respect to HRAS wild-type protein to the KD value with respect to KRAS
[5] = ratio of KD for GDP-bound NRAS wild-type protein to KD for KRAS
[6] = ratio of KD for HRAS wild-type protein to KD for KRAS
[7] = ratio of KD value for GDP-bound NRAS wild-type protein to KD value for KRAS (SPR)
[8] = ratio of KD value for HRAS wild-type protein to KD value for KRAS (SPR)

Row | IC50 [2] [nM] | SMILES | NRAS /KRAS [1, 3] | HRAS /KRAS (HRAS wild-type protein; [4]) | NRAS /KRAS [1, 5] | HRAS /KRAS (HRAS wild-type protein; [6]) | NRAS /KRAS [1, 7] | HRAS /KRAS (HRAS wild-type protein; [8])
1 | 20.2 | CCO[C@@H]1C[C@H]2C(=O)NC3(CC(C)(C)C3)C(=O)N(C)[C@@H](C3CCCC3)C(=O)N(C)[C@H](C(=O)N(C)CC)CC(=O)N(C)[C@@H](C(C)C)C(=O)N[C@@H]([C@@H](C)CC)C(=O)N(C)CC(=O)N(C)[C@H]3C/C=C\CCN(C3=O)[C@@H](Cc3ccc(C(F)(F)F)cc3)C(=O)N(C)CC(=O)N[C@@H](CCc3ccc(C(F)(F)F)c(OC)c3)C(=O)N2C1 [PP1977] | AA (a compound having 20 or more is denoted as AA) | A (a compound having 10 or more and less than 20 is denoted as A) |  |  |  | 
2 | 45.9 | CCO[C@@H]1C[C@H]2C(=O)NC3(CCC3)C(=O)N(C)[C@@H](C3CCCC3)C(=O)N(C)[C@H](C(=O)N(C)C)CC(=O)N(C)[C@@H](CC)C(=O)N[C@@H]([C@@H](C)CC)C(=O)N(C)CC(=O)N(C)[C@H]3CCCCN(C3=O)[C@@H](Cc3ccc(C(F)(F)F)cc3)C(=O)N(C)CC(=O)N[C@@H](CCc3ccc(OC(F)F)c(F)c3)C(=O)N2C1 [PP0986] |  |  | C (A compound having a KD ratio of 0.1 or more and less than 3 is denoted as C) | C (A compound having a KD ratio of 0.1 or more and less than 3 is denoted as C) |  | 
3 | 5.1 | CCO[C@@H]1C[C@H]2C(=O)NC3(CC(C)(C)C3)C(=O)N(C)[C@@H](C3CCCC3)C(=O)N(C)[C@H](C(=O)N(C)CC)CC(=O)N(C)[C@@H](COC)C(=O)N[C@@H]([C@@H](C)CC)C(=O)N(C)CC(=O)N(C)[C@H]3C/C=C\CCN(C3=O)[C@@H](Cc3ccc(C(F)(F)F)cc3)C(=O)N(C)CC(=O)N[C@@H](CCc3ccc(C(F)(F)F)c(Cl)c3)C(=O)N2C1 [PP2836] |  |  | A (a compound having 10 or more and less than 20 is denoted as A) | A (a compound having 10 or more and less than 20 is denoted as A) |  | 
4 | 10.8 | CCCN1C(=O)CN(C)C(=O)CN(C)C(=O)[C@H]([C@@H](C)CC)NC(=O)[C@H](CC(C)C)N(C)C(=O)C[C@@H](C(=O)N2CCOCC2)N(C)C(=O)[C@H](C2CCCC2)N(C)C(=O)C2(CCCC2)NC(=O)[C@@H]2CCCN2C(=O)[C@H](CCc2ccc(C(F)(F)F)c(Cl)c2)NC(=O)CN(C)C(=O)[C@@H]1Cc1ccccc1 [PP0211] ([NMeL]I[Sar][Sar][X15][Sar][hPhe(3-Cl-4-CF3)]P[Ac5c][NMeGly(cPent)][NMeD]-Morpholide; lactam N-11) |  |  | B (a compound having 3 or more and less than 10 is denoted as B) | C (A compound having a KD ratio of 0.1 or more and less than 3 is denoted as C) |  | 
5 | 7.8 | CC[C@H](C)[C@@H]1NC(=O)[C@H](C2CC2)N(C)C(=O)C[C@@H](C(=O)N(C)C)N(C)C(=O)[C@H](C2CCCC2)N(C)C(=O)C2(CCC2)N(C)C(=O)[C@@H]2CCCN2C(=O)[C@H](CCc2cc(F)c(C(F)(F)F)c(F)c2)NC(=O)CN(C)C(=O)[C@H](Cc2ccc(C)cc2)N2CC/C=C\C[C@@H](C2=O)N(C)C(=O)CN(C)C1=O [PP1784] |  |  |  |  | A (a compound having 10 or more and less than 20 is denoted as A) | B (a compound having 3 or more and less than 10 is denoted as B)
6 | 4.7 | CCCN1C(=O)CN(C)C(=O)CN(C)C(=O)[C@H]([C@@H](C)CC)NC(=O)[C@H](CC(C)C)N(C)C(=O)C[C@@H](C(=O)N2CCOCC2)N(C)C(=O)[C@H](C2CCCC2)N(C)C(=O)C2(CCCC2)NC(=O)[C@@H]2CCCN2C(=O)[C@H](CCc2ccc(Cl)c(Cl)c2)NC(=O)CN(C)C(=O)[C@@H]1Cc1ccc(C(F)(F)F)cc1 [PP0232] ([NMeL]I[Sar][Sar][NPrPhe(4-CF3)][Sar][hPhe(3,4-Cl2)]P[Ac5c][NMeGly(cPent)][NMeD]-Morpholide; lactam N-11) |  |  | B (a compound having 3 or more and less than 10 is denoted as B) | B (a compound having 3 or more and less than 10 is denoted as B) |  | 
7 | 5.1 | CCO[C@@H]1C[C@H]2C(=O)NC3(CCC3)C(=O)N(C)[C@@H](C3CCCC3)C(=O)N(C)[C@H](C(=O)N(C)C)CC(=O)N(C)[C@@H](C)C(=O)N[C@@H]([C@@H](C)CC)C(=O)N(C)CC(=O)N(C)[C@H]3CCCCN(C3=O)[C@@H](Cc3ccc(C(F)(F)F)cc3)C(=O)N(C)CC(=O)N[C@@H](CCc3cc(F)c(C(F)(F)F)c(F)c3)C(=O)N2C1 [PP0587] | C (A compound having a KD ratio of 0.1 or more and less than 3 is denoted as C) | C (A compound having a KD ratio of 0.1 or more and less than 3 is denoted as C) |  |  |  | 
8 | 40.4 | CCO[C@@H]1C[C@H]2C(=O)NC3(CCC3)C(=O)N(C)[C@@H]([C@@H](C)CC)C(=O)N(C)[C@H](C(=O)N(C)C)CC(=O)N(C)[C@@H](CC)C(=O)N[C@@H]([C@@H](C)CC)C(=O)N(C)CC(=O)N(C)[C@H]3C/C=C\CCN(C3=O)[C@@H](Cc3ccc(C(F)(F)F)cc3)C(=O)N(C)CC(=O)N[C@@H](CCc3cc(F)c(C(F)(F)F)c(F)c3)C(=O)N2C1 [PP1087] |  |  | A (a compound having 10 or more and less than 20 is denoted as A) | A (a compound having 10 or more and less than 20 is denoted as A) |  | 
9 | 48.9 | CCO[C@@H]1C[C@H]2C(=O)NC3(CCC3)C(=O)N(C)[C@@H](C3CCCC3)C(=O)N(C)[C@H](C)CC(=O)N(C)[C@@H](CC3CC3)C(=O)N[C@@H]([C@@H](C)CC)C(=O)N(C)CC(=O)N(C)[C@H]3C/C=C\CCN(C3=O)[C@@H](Cc3ccc(F)cc3)C(=O)N(C)CC(=O)N[C@@H](CCc3cc(F)c(C(F)(F)F)c(F)c3)C(=O)N2C1 [PP1490] |  |  |  |  | B (a compound having 3 or more and less than 10 is denoted as B) | B (a compound having 3 or more and less than 10 is denoted as B)
10 | 149 | CCCN1C(=O)CN(C)C(=O)CNC(=O)[C@H]([C@@H](C)CC)NC(=O)[C@H](CC(C)C)N(C)C(=O)C[C@@H](C(=O)N(C)C)NC(=O)[C@H](C2CCCC2)N(C)C(=O)C2(CCC2)NC(=O)[C@@H]2CCCN2C(=O)[C@H](CCc2ccc(C(F)(F)F)c(Cl)c2)NC(=O)CN(C)C(=O)[C@@H]1Cc1ccc(C(F)(F)F)cc1 [PP0362] ([NMeL]IG[Sar][NPrPhe(4-CF3)][Sar][hPhe(3-Cl-4-CF3)]P[Ac4c][NMeGly(cPent)]D-NMe2; lactam N-11) |  |  | B (a compound having 3 or more and less than 10 is denoted as B) | B (a compound having 3 or more and less than 10 is denoted as B) |  | 
11 | 122 | CCCN1C(=O)[C@@H]2CCN2C(=O)CN(C)C(=O)[C@H]([C@@H](C)CC)NC(=O)[C@H](CC(C)C)N(C)C(=O)C[C@@H](C(=O)N2CCOCC2)N(C)C(=O)[C@H](C2CCCC2)N(C)C(=O)[C@](C)(CCC)NC(=O)[C@@H]2CCCN2C(=O)[C@H](CCc2cc(F)c(C(F)(F)F)c(F)c2)NC(=O)CN(C)C(=O)[C@@H]1Cc1ccc(C(F)(F)F)cc1 [PP0794] ([NMeL]I[Sar][Aze][NPrPhe(4-CF3)][Sar][hPhe(3,5-F2-4-CF3)]P[X3][NMeGly(cPent)][NMeD]-Morpholide; lactam N-11) |  |  | C (A compound having a KD ratio of 0.1 or more and less than 3 is denoted as C) | B (a compound having 3 or more and less than 10 is denoted as B) |  | 
12 | 7.1 | CCO[C@@H]1C[C@H]2C(=O)NC3(CCC3)C(=O)N(C)[C@@H](C3CCCC3)C(=O)N(C)[C@H](C(=O)N3CCOCC3)CC(=O)N(C)[C@@H](CC3CC3)C(=O)N[C@@H]([C@@H](C)CC)C(=O)N(C)CC(=O)N(C)[C@H]3CCCCN(C3=O)[C@@H](Cc3ccc(C(F)(F)F)cc3)C(=O)N(C)CC(=O)N[C@@H](CCc3cc(F)c(C(F)(F)F)c(F)c3)C(=O)N2C1 [PP0712] | C (A compound having a KD ratio of 0.1 or more and less than 3 is denoted as C) | C (A compound having a KD ratio of 0.1 or more and less than 3 is denoted as C) |  |  |  | 
13 | 2 | CCCOC[C@H]1C(=O)N[C@@H]([C@@H](C)CC)C(=O)N(C)CC(=O)N(C)[C@H]2C/C=C\CCN(C2=O)[C@@H](Cc2ccc(C(F)(F)F)cc2)C(=O)N(C)CC(=O)N[C@@H](CCc2ccc(C(F)(F)F)c(OC)c2)C(=O)N2C[C@H](OCC)C[C@H]2C(=O)NC2(CC(C)(C)C2)C(=O)N(C)[C@@H](C2CCCC2)C(=O)N(C)[C@H](C(=O)N(C)C)CC(=O)N1C [PP1657] |  |  |  |  | A (a compound having 10 or more and less than 20 is denoted as A) | B (a compound having 3 or more and less than 10 is denoted as B)
14 | 24.3 | CCO[C@@H]1C[C@H]2C(=O)NC3(CC(C)(C)C3)C(=O)N(C)[C@@H](C(CC)CC)C(=O)N(C)[C@H](C(=O)N3CCCC3)CC(=O)N(C)[C@@H](COC)C(=O)N[C@@H]([C@@H](C)CC)C(=O)N(C)CC(=O)N(C)[C@H]3C/C=C\CCN(C3=O)[C@@H](Cc3ccc(C(F)(F)F)cc3)C(=O)N(C)CC(=O)N[C@@H](CCc3cc(F)c(C(F)(F)F)c(F)c3)C(=O)N2C1 [PP2123] | A (a compound having 10 or more and less than 20 is denoted as A) | A (a compound having 10 or more and less than 20 is denoted as A) |  |  |  | 
15 | 18.5 | CCO[C@@H]1C[C@H]2C(=O)NC3(CC(C)(C)C3)C(=O)N(C)[C@@H](C3CCCC3)C(=O)N(C)[C@H](C(=O)N(C)C)CC(=O)N3CCCCC[C@H]3C(=O)N[C@@H]([C@@H](C)CC)C(=O)N(C)CC(=O)N(C)[C@H]3C/C=C\CCN(C3=O)[C@@H](Cc3ccc(C(F)(F)F)cc3)C(=O)N(C)CC(=O)N[C@@H](CCc3cc(F)c(C(F)(F)F)c(F)c3)C(=O)N2C1 [PP1915] | A (a compound having 10 or more and less than 20 is denoted as A) | A (a compound having 10 or more and less than 20 is denoted as A) |  |  |  | 
